Tests used:
[1] = tested on: scopolamine-induced amnesic mice; assay: Object recognition test (ORT); format: in vivo; conditions: i.p.; for Discrimination index / episodic short-term memory, ORT vs scopolamine-treated group: tacrine 1 mg/kg, IND8, QND8 10 and 50 μmol/kg; for Minimum effective dose, ORT: scopolamine induced amnesia model, ICR mice
Description: FIG. 22 illustrates exploration time to familiar (F) and novel (N) objects of IND8 (A) and QND8 (B) in test phase of ORT. Each mouse was allowed to explore an open field apparatus for 5 min in a habituation phase. After a 24 h period, IND8, QND8, PNU-282987, vehicle (15% Tween80, SH) and tacrine (TC) were injected 1 h and scopolamine (SC) 30 min before sample phase, respectively. Each mouse explored 2 identical objects in the sample phase for 5 min and then placed in its cage for 10 min before the test phase began. In the 5 min of test phase, one of the objects was changed to a new one. The exploration time of these objects was recorded.
In both data sets, a discrimination index (DI) was calculated and used to evaluate the ability of mice to discriminate between familiar and novel objects. Data are represented in FIG. 23.
Amnesia was induced pharmacologically in mice via scopolamine injection (single dose) for 30 min prior to start the experiments. They were divided into vehicle group: receiving 15% tween 80 and 0.9% NSS, amnesia group: receiving scopolamine 1 mg/kg, standard positive control group receiving tacrine 1 mg/kg, and test group: receiving IND8, QND8 at dose 5, 10, 25, 50 μmol/kg, or PNU-282987 3, 10 mg/kg, single dose. All mice were acclimated in an experimental room at least 30 min before the experiments.
The apparatus was made of black polyvinyl chloride (52×52×40 cm). The objects used in this experiment had different visual shapes and colors to be discriminated. They were placed 10 cm from the side wall in the balanced manner. The box area and objects were cleaned with 70% ethanol between each experiment to remove odor cues.
The mice were randomly divided into different treatment groups. They were allowed to freely explore the open field apparatus for 5 min for habituation in the day prior to the experiments to get familiar with the apparatus. On the experimental day, test compounds injected 1 h, whereas scopolamine administered 30 min before the sample phase (acquisition trial). The mice were placed in the apparatus to explore 2 identical objects. After 10 min of acclimation in their cages, one object was changed to a new one, and mice were allowed to explore these objects for 5 min in the test phase (retention trial). The exploration time of each object was recorded if the nose of mice approached the objects within 3 cm or touched the objects. The discrimination index (DI) was calculated by using (TN−TF)/(TN+TF); TN and TF represented exploration time of new and familiar objects, respectively.

[2] = tested on: scopolamine-induced amnesic mice; assay: Water maze test; format: in vivo; conditions: i.p.; IND8 25 and 50 μmol/kg, QND8 25 μmol/kg
Description: The water maze test, a model for spatial learning and reference memory, related to function in the hippocampus, was also used as a study model in which mice locate a hidden platform after training session. Mice were trained to locate a hidden platform until a steady state measured by a shortened escape latency time was reached.
The average swimming time in a target quadrant where the platform had previously been placed was measured in the test day, day 8 (FIG. 25).
FIG. 25 illustrates the average swimming time in the target quadrant of water maze test. Data are presented in means±SE. IND8, QND8, PNU-282987, vehicle (15% Tween80, SH) and tacrine (TC) were injected 1 h and scopolamine (SC) 30 min before testing, respectively.
A black circular tank (diameter 70 cm; height 28 cm) was divided into 4 quadrants with a removable escape platform (6×7.5×14 cm) centered in a target quadrant. The tank was filled with water to 15 cm height and the platform was located 1 cm below the water surface.
Mice were trained from 5-7 days to get the steady state of escape latency. During day 1 to 5, each mouse was trained to swim from each quadrant with 1 min maximum time and allowed to stay on the platform for 10 sec. The mouse is placed on the platform for 10 s if it cannot find the hidden platform within 1 min. The escape latency time from each quadrant was measured. […] The probe test began when the escape latency time reached the steady state. The platform was removed and time spent in the target quadrant was measured. On the next day, all conditions were the same as probe test, but the platform was brought back to remind the mice of the target quadrant location. All mice were injected with test compounds 1 h and scopolamine 30 min before testing. The swimming time in the target quadrant was measured.

[3] = molecular target: hERG K^+ channel (Homo sapiens, UniProt Q12809); conditions: at 20 μM; cited from earlier work
Sequence of hERG K^+ channel (Q12809 whole entry): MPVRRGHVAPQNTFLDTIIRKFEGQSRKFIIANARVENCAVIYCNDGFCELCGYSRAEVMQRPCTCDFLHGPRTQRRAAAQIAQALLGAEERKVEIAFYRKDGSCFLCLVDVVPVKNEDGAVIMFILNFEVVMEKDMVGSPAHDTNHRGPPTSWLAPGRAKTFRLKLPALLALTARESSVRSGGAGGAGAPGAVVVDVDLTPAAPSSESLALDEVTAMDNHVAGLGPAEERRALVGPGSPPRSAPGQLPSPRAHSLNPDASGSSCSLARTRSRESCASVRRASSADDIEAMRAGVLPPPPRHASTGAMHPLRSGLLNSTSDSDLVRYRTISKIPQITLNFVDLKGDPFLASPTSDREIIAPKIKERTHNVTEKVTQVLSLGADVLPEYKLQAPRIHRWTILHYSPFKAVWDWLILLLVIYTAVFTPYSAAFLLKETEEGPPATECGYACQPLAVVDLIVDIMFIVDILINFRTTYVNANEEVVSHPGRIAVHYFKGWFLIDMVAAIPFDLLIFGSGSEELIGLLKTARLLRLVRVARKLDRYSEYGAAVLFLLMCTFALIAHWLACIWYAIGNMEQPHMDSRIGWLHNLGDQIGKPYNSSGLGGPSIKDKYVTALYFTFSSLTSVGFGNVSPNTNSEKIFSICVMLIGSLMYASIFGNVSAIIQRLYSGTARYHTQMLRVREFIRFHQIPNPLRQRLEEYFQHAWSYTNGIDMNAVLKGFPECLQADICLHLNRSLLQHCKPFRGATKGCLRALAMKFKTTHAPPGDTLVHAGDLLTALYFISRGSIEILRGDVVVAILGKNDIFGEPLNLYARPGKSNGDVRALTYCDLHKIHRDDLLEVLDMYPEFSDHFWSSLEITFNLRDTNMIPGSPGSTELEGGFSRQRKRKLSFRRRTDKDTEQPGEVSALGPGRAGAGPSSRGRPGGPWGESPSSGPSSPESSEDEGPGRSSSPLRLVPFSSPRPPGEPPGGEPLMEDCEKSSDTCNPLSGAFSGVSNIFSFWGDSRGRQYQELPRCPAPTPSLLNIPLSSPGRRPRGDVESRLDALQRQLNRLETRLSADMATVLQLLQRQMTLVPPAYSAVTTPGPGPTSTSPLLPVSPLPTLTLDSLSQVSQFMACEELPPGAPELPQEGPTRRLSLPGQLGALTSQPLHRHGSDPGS

Structure (SMILES) | Discrimination index / episodic short-term memory, ORT vs scopolamine-treated group [1] | Minimum effective dose, ORT [1] | Time in target quadrant, water maze vs scopolamine-treated group [2] | inhibition of hERG [3]
Oc1ccc(-c2cn(C3CN4CCC3CC4)nn2)cc1 (stereo not shown) [QND8, 3-(4-hydroxyphenyl-1,2,3-triazol-1-yl) quinuclidine] | significantly improved episodic short-term memory | 10 µmol/kg | significantly spent more time than amnesia group | –
O=C(N[C@H]1CN2CCC1CC2)c1ccc(Cl)cc1 [PNU-282987, reference compound] | – | – | – | 57%
c1cc2cc(-c3cn(C4CN5CCC4CC5)nn3)ccc2[nH]1 (stereo not shown) [IND8, 5-((Quinuclid-3-yl)-1H-1,2,3-triazol-4-yl)-1H-indole] | significantly improved episodic short-term memory | 10 µmol/kg | significantly spent more time than amnesia group | –
